# Key:
# Assay in all cases: Test E greenhouse herbicide test, pre- and postemergence
# Assay type in all cases: in vivo
# [1] = test system: waterhemp (common waterhemp, Amaranthus rudis)
# In short: (§1)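 Seeds were sown in silt loam and sprayed preemergence with compound in a non-phytotoxic solvent mix containing surfactant; for postemergence, plants at 2 to 18 cm (1- to 4-leaf stage) in peat-based potting medium were sprayed with the same formulation. After 14 to 21 d in a greenhouse, injury was rated visually against controls (0–100).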
# [2] = test system: barnyardgrass (Echinochloa crus-galli)
# In short: as §1
# [3] = test system: foxtail, green (green foxtail, Setaria viridis); settings: Preemergence
# In short: as §1
# [4] = test system: ragweed (common ragweed, Ambrosia elatior)
# In short: as §1
# [5] = test system: goosegrass (Eleusine indica); settings: Preemergence
# In short: as §1
# [6] = test system: surinam grass (Brachiaria decumbens); settings: Preemergence
# In short: as §1
# [7] = test system: sandbur (southem sandbur, Cenchrus echinatus)
# In short: as §1
# [8] = test system: johnsongrass (Sorghum halepense); settings: Preemergence
# In short: as §1
# corn (Zea mays) = test system: corn (Zea mays)
# In short: as §1
# [9] = test system: pigweed, palmer (palmer pigweed, Amaranthus palmeri)
# In short: as §1
# [10] = test system: nightshade (eastern black nightshade, Solanum ptycanthum); settings: Preemergence
# In short: as §1
# [11] = test system: nutsedge, yellow (yellow nutsedge, Cyperus esculentus); settings: Preemergence
# In short: as §1
# [12] = test system: velvetleaf (Abutilon theophrasti); settings: Preemergence
# In short: as §1
# kochia (Kochia scoparia) = test system: kochia (Kochia scoparia)
# In short: as §1
# [13] = test system: crabgrass, large (large crabgrass, Digitaria sanguinalis); settings: Preemergence
# In short: as §1
# [14] = test system: Italian ryegrass (Lolium multiflorum)
# In short: as §1
# [15] = test system: crabgrass, Brazilian (Brazilian crabgrass, Digitaria horizontalis)
# In short: as §1
# [16] = 62 g ai/ha, Preemergence, scale 0 to 100 (0 no effect, 100 complete control)
# [17] = 125 g ai/ha, Postemergence, scale 0 to 100 (0 no effect, 100 complete control)
# [18] = 125 g ai/ha, Preemergence, scale 0 to 100 (0 no effect, 100 complete control)
# [19] = 250 g ai/ha, Postemergence, scale 0 to 100 (0 no effect, 100 complete control)
# [20] = Postemergence, 31 g ai/ha, visual, scale 0 no effect to 100 complete control
# [21] = Preemergence, 31 g ai/ha, scale 0 to 100, 0 no effect, 100 complete control
# [22] = Preemergence, 250 g ai/ha, visual, scale 0 no effect to 100 complete control
# [23] = 62 g ai/ha, Postemergence, scale 0 to 100 (0 no effect, 100 complete control)
# [24] = 62 g ai/ha, scale 0 to 100 (0 no effect, 100 complete control)
# [25] = 125 g ai/ha, scale 0 to 100 (0 no effect, 100 complete control)
# [26] = 31 g ai/ha, scale 0 to 100, 0 no effect, 100 complete control
# [27] = 250 g ai/ha, visual, scale 0 no effect to 100 complete control
structure (smiles),measurement,setting,value
Cc1cc(C)c2sc(C)c(-c3c(OC(=O)OCCCl)c(C)nn(C)c3=O)c2c1 [Compound 85],"Plant response rating, Waterhemp",[1]; [16],80
same,"Plant response rating, Waterhemp",[1]; [17],65
same,"Plant response rating, Waterhemp",[1]; [18],70
same,"Plant response rating, Waterhemp",[1]; [19],90
same,"Plant response rating, Waterhemp",[1]; [20],50
same,"Plant response rating, Waterhemp",[1]; [21],35
same,"Plant response rating, Waterhemp",[1]; [22],85
same,"Plant response rating, Barnyardgrass",[2]; [23],30
same,"Plant response rating, Barnyardgrass",[2]; [16],0
same,"Plant response rating, Barnyardgrass",[2]; [17],20
same,"Plant response rating, Barnyardgrass",[2]; [18],30
same,"Plant response rating, Barnyardgrass",[2]; [19],30
same,"Plant response rating, Barnyardgrass",[2]; [20],20
same,"Plant response rating, Barnyardgrass",[2]; [21],0
same,"Plant response rating, Barnyardgrass",[2]; [22],35
same,"Plant response rating, Foxtail, Green",[3]; [24],25
same,"Plant response rating, Foxtail, Green",[3]; [25],15
same,"Plant response rating, Foxtail, Green",[3]; [26],0
same,"Plant response rating, Foxtail, Green",[3]; [27],100
same,"Plant response rating, Ragweed",[4]; [23],50
same,"Plant response rating, Ragweed",[4]; [16],80
same,"Plant response rating, Ragweed",[4]; [17],60
same,"Plant response rating, Ragweed",[4]; [18],90
same,"Plant response rating, Ragweed",[4]; [19],85
same,"Plant response rating, Ragweed",[4]; [20],50
same,"Plant response rating, Ragweed",[4]; [21],60
same,"Plant response rating, Ragweed",[4]; [22],98
same,"Plant response rating, Goosegrass",[5]; [24],5
same,"Plant response rating, Goosegrass",[5]; [25],5
same,"Plant response rating, Goosegrass",[5]; [26],5
same,"Plant response rating, Goosegrass",[5]; [27],20
same,"Plant response rating, Surinam Grass",[6]; [24],70
same,"Plant response rating, Surinam Grass",[6]; [25],70
same,"Plant response rating, Surinam Grass",[6]; [26],60
same,"Plant response rating, Surinam Grass",[6]; [27],90
same,"Plant response rating, Sandbur",[7]; [16],50
same,"Plant response rating, Sandbur",[7]; [17],70
same,"Plant response rating, Sandbur",[7]; [18],80
same,"Plant response rating, Sandbur",[7]; [19],70
same,"Plant response rating, Sandbur",[7]; [20],40
same,"Plant response rating, Sandbur",[7]; [21],0
same,"Plant response rating, Sandbur",[7]; [22],90
same,"Plant response rating, Johnsongrass",[8]; [24],0
same,"Plant response rating, Johnsongrass",[8]; [25],0
same,"Plant response rating, Johnsongrass",[8]; [26],0
same,"Plant response rating, Johnsongrass",[8]; [27],0
same,"Plant response rating, Corn",corn (Zea mays); [23],0
same,"Plant response rating, Corn",corn (Zea mays); [16],0
same,"Plant response rating, Corn",corn (Zea mays); [17],0
same,"Plant response rating, Corn",corn (Zea mays); [18],0
same,"Plant response rating, Corn",corn (Zea mays); [19],5
same,"Plant response rating, Corn",corn (Zea mays); [20],0
same,"Plant response rating, Corn",corn (Zea mays); [21],0
same,"Plant response rating, Corn",corn (Zea mays); [22],0
same,"Plant response rating, Pigweed, Palmer",[9]; [23],80
same,"Plant response rating, Pigweed, Palmer",[9]; [16],30
same,"Plant response rating, Pigweed, Palmer",[9]; [17],80
same,"Plant response rating, Pigweed, Palmer",[9]; [18],50
same,"Plant response rating, Pigweed, Palmer",[9]; [19],80
same,"Plant response rating, Pigweed, Palmer",[9]; [20],65
same,"Plant response rating, Pigweed, Palmer",[9]; [21],25
same,"Plant response rating, Pigweed, Palmer",[9]; [22],90
same,"Plant response rating, Nightshade",[10]; [24],95
same,"Plant response rating, Nightshade",[10]; [25],100
same,"Plant response rating, Nightshade",[10]; [26],95
same,"Plant response rating, Nightshade",[10]; [27],100
same,"Plant response rating, Nutsedge, Yellow",[11]; [24],35
same,"Plant response rating, Nutsedge, Yellow",[11]; [25],35
same,"Plant response rating, Nutsedge, Yellow",[11]; [27],65
same,"Plant response rating, Velvetleaf",[12]; [24],30
same,"Plant response rating, Velvetleaf",[12]; [25],70
same,"Plant response rating, Velvetleaf",[12]; [26],0
same,"Plant response rating, Velvetleaf",[12]; [27],95
same,"Plant response rating, Kochia",kochia (Kochia scoparia); [23],70
same,"Plant response rating, Kochia",kochia (Kochia scoparia); [16],0
same,"Plant response rating, Kochia",kochia (Kochia scoparia); [17],80
same,"Plant response rating, Kochia",kochia (Kochia scoparia); [18],0
same,"Plant response rating, Kochia",kochia (Kochia scoparia); [19],80
same,"Plant response rating, Kochia",kochia (Kochia scoparia); [20],60
same,"Plant response rating, Kochia",kochia (Kochia scoparia); [21],0
same,"Plant response rating, Kochia",kochia (Kochia scoparia); [22],98
same,"Plant response rating, Crabgrass, Large",[13]; [24],0
same,"Plant response rating, Crabgrass, Large",[13]; [25],0
same,"Plant response rating, Crabgrass, Large",[13]; [26],0
same,"Plant response rating, Crabgrass, Large",[13]; [27],25
same,"Plant response rating, Ryegrass, Italian",[14]; [23],60
same,"Plant response rating, Ryegrass, Italian",[14]; [16],80
same,"Plant response rating, Ryegrass, Italian",[14]; [17],75
same,"Plant response rating, Ryegrass, Italian",[14]; [18],95
same,"Plant response rating, Ryegrass, Italian",[14]; [19],80
same,"Plant response rating, Ryegrass, Italian",[14]; [20],50
same,"Plant response rating, Ryegrass, Italian",[14]; [21],80
same,"Plant response rating, Ryegrass, Italian",[14]; [22],100
same,"Plant response rating, Crabgrass, Brazil",[15]; [23],30
same,"Plant response rating, Crabgrass, Brazil",[15]; [16],50
same,"Plant response rating, Crabgrass, Brazil",[15]; [17],50
same,"Plant response rating, Crabgrass, Brazil",[15]; [18],80
same,"Plant response rating, Crabgrass, Brazil",[15]; [19],50
same,"Plant response rating, Crabgrass, Brazil",[15]; [20],15
same,"Plant response rating, Crabgrass, Brazil",[15]; [21],10
same,"Plant response rating, Crabgrass, Brazil",[15]; [22],90
